Data published in patent publication US10294202B2, “Pyrrolidinones as herbicides” (FMC Corporation, priority 2013, dated 2019).

Columns and labels:
[1] = test system: chickweed; test: Test D pre-/postemergence herbicide test; assay type: in vivo, Stellaria media; conditions: for Plant response rating: Chickweed, scale 0 to 100; for Plant response rating, Chickweed: scale 0 to 100 (0 no effect, 100 complete control)
How it was run: (§1)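 Greenhouse pre- and postemergence screen with surfactant-containing non-phytotoxic solvent formulations. Silt loam soil served for preemergence application, and peat/vermiculite medium for postemergence application at 2–18 cm height. Visual 0–100 control ratings versus controls were recorded 7 to 21 days later.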

[2] = test system: kochia; test: Test D pre-/postemergence herbicide test; assay type: in vivo, Kochia scoparia; conditions: for Plant response rating: Kochia, scale 0 to 100; for Plant response rating, Kochia: scale 0 to 100 (0 no effect, 100 complete control)
How it was run: as §1

[3] = test system: chamomile; test: Test D pre-/postemergence herbicide test; assay type: in vivo, Matricaria inodora; conditions: for Plant response rating: Chamomile, scale 0 to 100; for Plant response rating, Chamomile: scale 0 to 100 (0 no effect, 100 complete control)
How it was run: as §1

[4] = test system: wheat, spring; test: Test D pre-/postemergence herbicide test; assay type: in vivo, Triticum aestivum; conditions: for Plant response rating: Postemergence, Wheat, Spring, scale 0 to 100; for Plant response rating, Wheat, Spring: Preemergence, scale 0 to 100 (0 no effect, 100 complete control)
How it was run: as §1

[5] = test system: wheat, winter; test: Test D pre-/postemergence herbicide test; assay type: in vivo, Triticum aestivum; conditions: for Plant response rating: Postemergence, Wheat, Winter, scale 0 to 100; for Plant response rating, Wheat, Winter: Preemergence, scale 0 to 100 (0 no effect, 100 complete control)
How it was run: as §1

[6] = test system: oat, wild; test: Test D pre-/postemergence herbicide test; assay type: in vivo, Avena fatua; conditions: for Plant response rating: Postemergence, Oat, Wild, scale 0 to 100; for Plant response rating, Oat, Wild: Preemergence, scale 0 to 100 (0 no effect, 100 complete control)
How it was run: as §1

[7] = test system: windgrass; test: Test D pre-/postemergence herbicide test; assay type: in vivo, Apera spica-venti; conditions: for Plant response rating: Postemergence, Windgrass, scale 0 to 100; for Plant response rating, Windgrass: Preemergence, scale 0 to 100 (0 no effect, 100 complete control)
How it was run: as §1

[8] = test system: velvetleaf; test: Test E preemergence herbicide test; assay type: in vivo, Abutilon theophrasti; parameters: key: 0 = no effect, 100 = complete control
How it was run: (§2)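 Seeds were sown in silt loam soil and treated preemergence with test chemicals in a non-phytotoxic solvent mixture containing a surfactant. Plants were kept in a greenhouse for 21 days, then visually rated against untreated controls on a 0–100 scale (0 = no effect, 100 = complete control).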

[9] = test system: ryegrass, Italian; test: Test E preemergence herbicide test; assay type: in vivo, Lolium multiflorum; parameters: key: 0 = no effect, 100 = complete control
How it was run: as §2

[10] = test system: nutsedge, yellow; test: Test E preemergence herbicide test; assay type: in vivo, Cyperus esculentus; parameters: key: 0 = no effect, 100 = complete control
How it was run: as §2

Compound: O=C1NCC(c2ccc(C(F)(F)F)cc2)C1C(=O)Nc1cccc(F)c1F (centres unmarked) [Compound 80, N-(2,3-difluorophenyl)-2-oxo-4-[4-(trifluoromethyl)phenyl]-3-pyrrolidinecarboxamide]
- Plant response rating ([1]; Postemergence, 31 g ai/ha): 35
- Plant response rating ([1]; Postemergence, 62 g ai/ha): 45
- Plant response rating ([1]; Postemergence, 125 g ai/ha): 85
- Plant response rating ([1]; Postemergence, 250 g ai/ha): 85
- Plant response rating, Chickweed ([1]; Preemergence, 62 g ai/ha): 100
- Plant response rating, Chickweed ([1]; Preemergence, 31 g ai/ha): 85
- Plant response rating ([1]; Preemergence, 125 g ai/ha): 100
- Plant response rating ([1]; Preemergence, 250 g ai/ha): 100
- Plant response rating ([2]; Postemergence, 31 g ai/ha): 65
- Plant response rating ([2]; Postemergence, 62 g ai/ha): 75
- Plant response rating ([2]; Postemergence, 125 g ai/ha): 70
- Plant response rating ([2]; Postemergence, 250 g ai/ha): 75
- Plant response rating, Kochia ([2]; Preemergence, 62 g ai/ha): 35
- Plant response rating, Kochia ([2]; Preemergence, 31 g ai/ha): 15
- Plant response rating ([2]; Preemergence, 125 g ai/ha): 70
- Plant response rating ([2]; Preemergence, 250 g ai/ha): 75
- Plant response rating ([3]; Postemergence, 31 g ai/ha): 20
- Plant response rating ([3]; Postemergence, 62 g ai/ha): 30
- Plant response rating ([3]; Postemergence, 125 g ai/ha): 35
- Plant response rating ([3]; Postemergence, 250 g ai/ha): 50
- Plant response rating, Chamomile ([3]; Preemergence, 62 g ai/ha): 80
- Plant response rating, Chamomile ([3]; Preemergence, 31 g ai/ha): 80
- Plant response rating ([3]; Preemergence, 125 g ai/ha): 80
- Plant response rating ([3]; Preemergence, 250 g ai/ha): 85
- Plant response rating ([4]; 31 g ai/ha): 0
- Plant response rating ([4]; 62 g ai/ha): 0
- Plant response rating ([4]; 125 g ai/ha): 0
- Plant response rating ([4]; 250 g ai/ha): 0
- Plant response rating, Wheat, Spring ([4]; 62 g ai/ha): 10
- Plant response rating, Wheat, Spring ([4]; 125 g ai/ha): 10
- Plant response rating, Wheat, Spring ([4]; 31 g ai/ha): 0
- Plant response rating, Wheat, Spring ([4]; 250 g ai/ha): 20
- Plant response rating ([5]; 31 g ai/ha): 0
- Plant response rating ([5]; 62 g ai/ha): 0
- Plant response rating ([5]; 125 g ai/ha): 10
- Plant response rating ([5]; 250 g ai/ha): 5
- Plant response rating, Wheat, Winter ([5]; 62 g ai/ha): 5
- Plant response rating, Wheat, Winter ([5]; 125 g ai/ha): 10
- Plant response rating, Wheat, Winter ([5]; 31 g ai/ha): 5
- Plant response rating, Wheat, Winter ([5]; 250 g ai/ha): 10
- Plant response rating ([6]; 31 g ai/ha): 10
- Plant response rating ([6]; 62 g ai/ha): 10
- Plant response rating ([6]; 125 g ai/ha): 5
- Plant response rating ([6]; 250 g ai/ha): 10
- Plant response rating, Oat, Wild ([6]; 62 g ai/ha): 5
- Plant response rating, Oat, Wild ([6]; 125 g ai/ha): 10
- Plant response rating, Oat, Wild ([6]; 31 g ai/ha): 0
- Plant response rating, Oat, Wild ([6]; 250 g ai/ha): 20
- Plant response rating ([7]; 31 g ai/ha): 0
- Plant response rating ([7]; 62 g ai/ha): 10
- Plant response rating ([7]; 125 g ai/ha): 10
- Plant response rating ([7]; 250 g ai/ha): 25
- Plant response rating, Windgrass ([7]; 62 g ai/ha): 20
- Plant response rating, Windgrass ([7]; 125 g ai/ha): 75
- Plant response rating, Windgrass ([7]; 31 g ai/ha): 5
- Plant response rating, Windgrass ([7]; 250 g ai/ha): 90
- Plant response rating, Velvetleaf ([8]; 16 g ai/ha): 0
- Plant response rating, Velvetleaf ([8]; 31 g ai/ha): 0
- Plant response rating, Velvetleaf ([8]; 62 g ai/ha): 0
- Plant response rating, Velvetleaf ([8]; 125 g ai/ha): 0
- Plant response rating, Velvetleaf ([8]; 250 g ai/ha): 0
- Plant response rating, Ryegrass, Italian ([9]; 16 g ai/ha): 0
- Plant response rating, Ryegrass, Italian ([9]; 31 g ai/ha): 0
- Plant response rating, Ryegrass, Italian ([9]; 62 g ai/ha): 0
- Plant response rating, Ryegrass, Italian ([9]; 125 g ai/ha): 45
- Plant response rating, Ryegrass, Italian ([9]; 250 g ai/ha): 60
- Plant response rating, Nutsedge, Yellow ([10]; 16 g ai/ha): 0
- Plant response rating, Nutsedge, Yellow ([10]; 31 g ai/ha): 0
- Plant response rating, Nutsedge, Yellow ([10]; 62 g ai/ha): 0
- Plant response rating, Nutsedge, Yellow ([10]; 125 g ai/ha): 0
- Plant response rating, Nutsedge, Yellow ([10]; 250 g ai/ha): 0
